According to patent US20080004282A1, “Compositions and methods for modulating gated ion channels” (PainCeptor Pharma Corporation, priority 2006, published 2008):

System: chemically-induced spontaneous pain evoked by intraplantar injection of formalin
Assay: Formalin test (model of acute tonic pain)
Assay type: in vivo
Conditions: rat; for pain intensity as evaluated by the flinching or licking behaviors: s.c. 30 min prior to formalin injection; for ED50: sc, s.c. 30 min prior to formalin, licking and biting episodes in phase IIa, read-out: ED50, effective dose where the pain score is reduced by half
Source text: Model of Acute Tonic Pain
This example describes a procedure for the in vivo assessment of the inhibitory activity of the compounds of the present invention.
A number of well-established models of pain are described in the literature and are known to the skilled in the art (see, for example, Table 1). This example describes the use of the Formalin test.
Male Sprague-Dawley rats are housed together in groups of three animals under standard conditions with unrestricted access to food and water. All experiments are conducted according to the ethical guidelines for investigations of experimental pain in conscious animals (Zimmerman, 1983)
Assessment of formalin-induced flinching behavior in normal, uninjured rats (body weight 150-180 g) is made with the use of an Automated Nociception Analyser (University of California, San Diego, USA). Briefly, this involves placing a small C-shaped metal band (10 mm wide×27 mm long) on the hindpaw of the rat to be tested. The rats (four rats are included in each testing session) are then placed in a cylindrical plexiglass observation chamber (diameter 30.5 cm and height 15 cm) for 20 min for adaptation purposes prior to being administered drug or vehicle according to the experimental paradigm being followed. […] Rats are then returned to their separate observation chambers, each of which are in turn situated upon an enclosed detection device consisting of two electromagnetic coils designed to produce an electromagnetic field in which movement of the metal band could be detected. […] A sampling interval of 1 min is used and on the basis of the resulting response patterns 5 phases of nociceptive behaviour are identified and scored: first phase (P1; 0-5 min), interphase (Int; 6-15 min), second phase (P2; […]), phase 2A (P2A; 16-40 min) and phase 2B (P2B; 41-60 min).
Nociceptive behavior is also determined manually every 5 min by measuring the amount of time spent in each of four behavioral categories: 0, treatment of the injected hindpaw is indistinguishable from that of the contralateral paw; 1, the injected paw has little or no weight placed on it; 2, the injected paw is elevated and is not in contact with any surface; 3, the injected paw is licked, bitten, or shaken. A weighted nociceptive score, ranging from 0 to 3 is calculated by multiplying the time spent in each category by the category weight, summing these products, and dividing by the total time for each 5 min block of time. […] On the basis of the resulting response patterns, […] of nociceptive behavior are identified and scored: first phase (P1; 0-5 min), interphase (Int; 6-15 min), second phase (P2; […]), phase 2A (P2A; 16-40 min) and phase 2B (P2B; 41-60 min). […]

CCN1CCc2c(-c3cc(Cl)ccc3OC)cc(C#N)c(N)c2C1 [Compound 44]
pain intensity as evaluated by the flinching or licking behaviors: dose-dependent reduction
ED50: 22 mg/kg

CCN1CCc2c(-c3ccccc3)cc(C#N)c(N)c2C1 [Compound 12, 8-Amino-2-ethyl-5-phenyl-1,2,3,4-tetrahydro-isoquinoline-7-carbonitrile]
pain intensity as evaluated by the flinching or licking behaviors: dose-dependent reduction
ED50: 4 mg/kg
